In patent US20260102503A1, “NANOCOMPOSITES FOR ENHANCED CELLULAR PAYLOAD DELIVERY” (priority 2022, published 2026):
Converted amounts (≈) assume the structure as drawn.

What was measured:
Format in all cases: cell-based
AT1 cells = test: Nanocomposite cellular uptake mechanism study (endocytosis inhibitors, temperature block); conditions: 5 μM, 2 hours pretreatment, vs untreated cells
Method: To determine the NC/NP uptake mechanism used by cells, an endocytosis-inhibition examination was performed. Alveolar Type 1 cells were seeded at confluency in 48-well plates and attached overnight at 37° C. in an incubator with 5% CO2. Rhodamine B-loaded nanocomposites were prepared using a similar procedure done for other studies. After 24 hours of seeding, the AT1 cell culture medium was replaced by fresh 1% serum media containing 5 μM of Amiloride, 5 μM of methyl-β-cyclodextran, 5 μg/mL of Filipin III, 5 μM of Cytochalasin-D, 5 μM of Imipramine, 80 μM Dynasore, or 5 mM of Deoxy-glucose (Sigma Aldrich & Cayman Chemical). After 2 hours, fresh complete media with Rho B-labeled nanocomposites at a concentration of 0.5 mg/mL was added. […] Images were acquired using a fluorescent microscope and processed for NP uptake in random areas using 10 images from each inhibitor group with the ImageJ software.
In a similar fashion, to check if the nanocomposites undergo an energy-dependent uptake, temperature block was studied in AT1 cells by preincubating cells at 4° C. for 30 minutes, followed by treatment with fluorescent nanocomposites for 90 minutes at 4° C. Later, fluorescent images were acquired, and the cell lysates were analyzed for quantitative nanocomposite uptake.

MRSA = test: microbe, parasite or virus in culture; conditions: Staphylococcus aureus, 24 h
[1] = tested on: primary alveolar type I epithelial cells (AT1); test: Cytocompatibility (MTS) in AT1 cells; conditions: 72 hours, 0.0625-1 mg/mL, vs untreated control
Method: Primary lung epithelial cells, RAW macrophages, and HUVECs were used to assess toxicity of the nanocomposites. Nanocomposites were prepared as described in for AT1 cells, in which 20,000 cells/well of primary alveolar type I epithelial cells (AT1) were seeded in 48-well plates. After the overnight culture, various groups of particles including blank PLGA NPs, nanofibers only, and nanocomposites (nanofiber coated-PLGA nanoparticles) were given to the cells in triplicate at various concentrations ranging from 0.0625-1 mg/mL. The nanofiber concentration chosen was equivalent to the peptide amount conjugated onto the nanoparticles. After 72 hours, the cells were washed 3 times with PBS, and MTS reagent was applied to the cells to assess the cell viability following the company's instructions.
In this study, primary lung epithelial cells and kidney epithelial cells (Vero E6) were used to assess toxicity from NPs. NF-coated NPs were prepared as described above, in which 4000 cells/well of primary alveolar type I epithelial cells (AT1 cells) and Vero E6 cells were seeded in 96-well plates. After overnight culturing, RDV NCs were added to the cells in triplicate at various concentrations ranging from 0 to 1 mg/mL. An NF to NP ratio of 0.25 was used for the study. […]

C=C1[C@@H](C)[C@H]2[C@H](Cc3ccccc3)NC(=O)[C@]23[C@H](OC(C)=O)/C=C/[C@@](C)(O)C(=O)[C@@H](C)C/C=C/[C@H]3[C@@H]1O [cytochalasin-D]
effect of endocytosis inhibitor on cellular uptake of NCs (AT1 cells): significant reduction in cellular uptake

CN[C@H](CC(C)C)C(=O)N[C@H]1C(=O)N[C@@H](CC(N)=O)C(=O)N[C@H]2C(=O)N[C@H]3C(=O)N[C@H](C(=O)N[C@H](C(=O)O)c4cc(O)cc(O)c4-c4cc3ccc4O)[C@H](O)c3ccc(c(Cl)c3)Oc3cc2cc(c3O[C@@H]2O[C@H](CO)[C@@H](O)[C@H](O)[C@H]2O[C@H]2C[C@](C)(N)[C@H](O)[C@H](C)O2)Oc2ccc(cc2Cl)[C@H]1O [free vancomycin, vancomycin]
MIC (MRSA): 2 µg/mL (≈ 1.38 µM)

Ac-KKKKKKKKKKQWQWQWQWQWQWEEE-NH2 [NFs, K10(QW)6E3]
cytocompatibility (cell viability, MTS) [1]: significant toxicity with concentrations ranging from 0.25-1 mg/mL
